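Values below derive from 48-hour exposures of cells grown in 96-well plates, with endpoints linearly interpolated between the two concentrations bracketing the appropriate inhibition level. TGI is the concentration that stops growth completely.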
Tests used:
Assay in all cases: NCI anticancer screen, dose series, 48 h
SF-539 CNS = tested on: SF-539 CNS
HOP-62 NSCLC = tested on: HOP-62 NSCLC
786-0 renal = tested on: 786-0 renal
NCI/ADR-RES ovarian = tested on: NCI/ADR-RES ovarian
SW-620 colon = tested on: SW-620 colon
NCI-H522 lung = tested on: NCI-H522 lung
SN12C renal = tested on: SN12C renal
MOLT-4 leukemia = tested on: MOLT-4 leukemia
ACHN renal = tested on: ACHN renal
RPMI-8226 leukemia = tested on: RPMI-8226 leukemia
SK-MEL-2 melanoma = tested on: SK-MEL-2 melanoma
MALME-3M melanoma = tested on: MALME-3M melanoma
A498 renal = tested on: A498 renal
OVCAR-4 ovarian = tested on: OVCAR-4 ovarian
HT29 colon = tested on: HT29 colon
SR leukemia = tested on: SR leukemia
CAKI-1 renal = tested on: CAKI-1 renal
SNB-75 CNS = tested on: SNB-75 CNS
HS 578T breast = tested on: HS 578T breast
OVCAR-3 ovarian = tested on: OVCAR-3 ovarian
HCC-2998 colon = tested on: HCC-2998 colon
PC-3 prostate = tested on: PC-3 prostate
HCT-15 colon = tested on: HCT-15 colon
T-47D breast = tested on: T-47D breast
MCF7 breast = tested on: MCF7 breast
LOX IMVI melanoma = tested on: LOX IMVI melanoma
MDA-N = tested on: MDA-N
UACC-62 melanoma = tested on: UACC-62 melanoma
SK-MEL-5 melanoma = tested on: SK-MEL-5 melanoma
KM12 colon = tested on: KM12 colon
HL-60(TB) leukemia = tested on: HL-60(TB) leukemia
BT-549 breast = tested on: BT-549 breast
SK-OV-3 ovarian = tested on: SK-OV-3 ovarian
HCT-116 colon = tested on: HCT-116 colon
MDA-MB-231 breast = tested on: MDA-MB-231 breast
IGROV1 ovarian = tested on: IGROV1 ovarian
SF-268 CNS = tested on: SF-268 CNS
NCI-H460 lung = tested on: NCI-H460 lung
HOP-92 NSCLC = tested on: HOP-92 NSCLC
U251 CNS = tested on: U251 CNS
NCI-H226 lung = tested on: NCI-H226 lung
OVCAR-5 ovarian = tested on: OVCAR-5 ovarian
OVCAR-8 ovarian = tested on: OVCAR-8 ovarian
M14 melanoma = tested on: M14 melanoma
MDA-MB-435 = tested on: MDA-MB-435
K-562 leukemia = tested on: K-562 leukemia
UO-31 renal = tested on: UO-31 renal
RXF 393 renal = tested on: RXF 393 renal
SK-MEL-28 melanoma = tested on: SK-MEL-28 melanoma
SNB-19 CNS = tested on: SNB-19 CNS
CCRF-CEM leukemia = tested on: CCRF-CEM leukemia
UACC-257 melanoma = tested on: UACC-257 melanoma
DU-145 prostate = tested on: DU-145 prostate
TK-10 renal = tested on: TK-10 renal
NCI-H23 lung = tested on: NCI-H23 lung
A549 NSCLC = tested on: A549 NSCLC
SF-295 CNS = tested on: SF-295 CNS
COLO 205 colon = tested on: COLO 205 colon
EKVX NSCLC = tested on: EKVX NSCLC

Structure (SMILES): Cc1ccc(NC(c2ccccc2)c2ccc3cccnc3c2O)cc1 (stereo not drawn)
- TGI (SF-539 CNS): 8.18 µM
- TGI (HOP-62 NSCLC): 19.9 µM
- TGI (786-0 renal): 15.1 µM
- TGI (NCI/ADR-RES ovarian): 15.2 µM
- TGI (SW-620 colon): > 52.2 µM
- TGI (NCI-H522 lung): 8.53 µM
- TGI (SN12C renal): 22.4 µM
- TGI (MOLT-4 leukemia): 17.3 µM
- TGI (ACHN renal): 15.5 µM
- TGI (RPMI-8226 leukemia): 19.2 µM
- TGI (SK-MEL-2 melanoma): 21 µM
- TGI (MALME-3M melanoma): 13.8 µM
- TGI (A498 renal): 54.8 µM
- TGI (OVCAR-4 ovarian): 16.4 µM
- TGI (HT29 colon): 13.6 µM
- TGI (SR leukemia): 14.4 µM
- TGI (CAKI-1 renal): 16.4 µM
- TGI (SNB-75 CNS): 19.2 µM
- TGI (HS 578T breast): 61.3 µM
- TGI (OVCAR-3 ovarian): 7.58 µM
- TGI (HCC-2998 colon): > 100 µM
- TGI (PC-3 prostate): 14.3 µM
- TGI (HCT-15 colon): 14.4 µM
- TGI (T-47D breast): 36 µM
- TGI (MCF7 breast): 16.2 µM
- TGI (LOX IMVI melanoma): 16.4 µM
- TGI (MDA-N): 17.7 µM
- TGI (UACC-62 melanoma): 18.3 µM
- TGI (SK-MEL-5 melanoma): 15.4 µM
- TGI (KM12 colon): 19.1 µM
- TGI (HL-60(TB) leukemia): 11.7 µM
- TGI (BT-549 breast): 15.3 µM
- TGI (SK-OV-3 ovarian): 23.8 µM
- TGI (HCT-116 colon): 13.8 µM
- TGI (MDA-MB-231 breast): 13.5 µM
- TGI (IGROV1 ovarian): 14 µM
- TGI (SF-268 CNS): 13.6 µM
- TGI (NCI-H460 lung): > 25 µM
- TGI (HOP-92 NSCLC): 16 µM
- TGI (U251 CNS): 10.9 µM
- TGI (NCI-H226 lung): 8.4 µM
- TGI (OVCAR-5 ovarian): 22.2 µM
- TGI (OVCAR-8 ovarian): 11.1 µM
- TGI (M14 melanoma): 19 µM
- TGI (MDA-MB-435): 19.3 µM
- TGI (K-562 leukemia): 30 µM
- TGI (UO-31 renal): 16 µM
- TGI (RXF 393 renal): 22.8 µM
- TGI (SK-MEL-28 melanoma): 33.3 µM
- TGI (SNB-19 CNS): 20 µM
- TGI (CCRF-CEM leukemia): 4.27 µM
- TGI (UACC-257 melanoma): 25.8 µM
- TGI (DU-145 prostate): 23.4 µM
- TGI (TK-10 renal): 14.3 µM
- TGI (NCI-H23 lung): 19.2 µM
- TGI (A549 NSCLC): 41.3 µM
- TGI (SF-295 CNS): 16.1 µM
- TGI (COLO 205 colon): 16.5 µM
- TGI (EKVX NSCLC): 15 µM

Structure (SMILES): S=c1ssc2c3ssc(=S)c3n(Cc3ccccc3)c12
- TGI (SF-539 CNS): 58.9 µM
- TGI (HOP-62 NSCLC): > 100 µM
- TGI (786-0 renal): > 100 µM
- TGI (NCI/ADR-RES ovarian): > 100 µM
- TGI (SW-620 colon): > 100 µM
- TGI (NCI-H522 lung): > 100 µM
- TGI (SN12C renal): > 100 µM
- TGI (MOLT-4 leukemia): 38.9 µM
- TGI (ACHN renal): > 100 µM
- TGI (RPMI-8226 leukemia): > 100 µM
- TGI (SK-MEL-2 melanoma): > 100 µM
- TGI (MALME-3M melanoma): > 100 µM
- TGI (A498 renal): > 100 µM
- TGI (OVCAR-4 ovarian): > 100 µM
- TGI (HT29 colon): > 100 µM
- TGI (SR leukemia): > 100 µM
- TGI (CAKI-1 renal): > 100 µM
- TGI (SNB-75 CNS): > 100 µM
- TGI (HS 578T breast): > 100 µM
- TGI (OVCAR-3 ovarian): > 100 µM
- TGI (HCC-2998 colon): > 100 µM
- TGI (PC-3 prostate): > 100 µM
- TGI (HCT-15 colon): > 100 µM
- TGI (T-47D breast): > 100 µM
- TGI (MCF7 breast): > 100 µM
- TGI (LOX IMVI melanoma): > 100 µM
- TGI (MDA-N): > 100 µM
- TGI (UACC-62 melanoma): > 100 µM
- TGI (SK-MEL-5 melanoma): > 100 µM
- TGI (KM12 colon): > 100 µM
- TGI (HL-60(TB) leukemia): > 100 µM
- TGI (BT-549 breast): > 100 µM
- TGI (SK-OV-3 ovarian): > 100 µM
- TGI (HCT-116 colon): > 100 µM
- TGI (MDA-MB-231 breast): > 100 µM
- TGI (IGROV1 ovarian): > 100 µM
- TGI (SF-268 CNS): > 100 µM
- TGI (NCI-H460 lung): > 100 µM
- TGI (HOP-92 NSCLC): > 100 µM
- TGI (U251 CNS): > 100 µM
- TGI (NCI-H226 lung): > 100 µM
- TGI (OVCAR-5 ovarian): > 100 µM
- TGI (OVCAR-8 ovarian): > 100 µM
- TGI (M14 melanoma): > 100 µM
- TGI (MDA-MB-435): > 100 µM
- TGI (K-562 leukemia): > 100 µM
- TGI (UO-31 renal): 67 µM
- TGI (RXF 393 renal): 34.3 µM
- TGI (SK-MEL-28 melanoma): > 100 µM
- TGI (SNB-19 CNS): > 100 µM
- TGI (CCRF-CEM leukemia): 58.2 µM
- TGI (UACC-257 melanoma): > 100 µM
- TGI (DU-145 prostate): > 100 µM
- TGI (TK-10 renal): > 100 µM
- TGI (NCI-H23 lung): > 100 µM
- TGI (A549 NSCLC): > 100 µM
- TGI (SF-295 CNS): > 100 µM
- TGI (COLO 205 colon): > 100 µM
- TGI (EKVX NSCLC): > 100 µM
